This is an account of results in patent publication US20240425514A1, “ALSTONINE DERIVATIVES AND SALTS THEREOF” (priority 2021, published 2024).

“Also recorded” adds a separate entry of the source. Counter-ions that a name gives are not always drawn.

For test [1], the system named is zebrafish. Kind of test: Social preference test in zebrafish, MK-801 model. Type of test: in vivo, Danio rerio. The following applies: for overall effect on all parameters of the social preference test: drug pretreatment, then water or MK-801 5 μM. As for the experimental part: (§1) Here, the ability of alstonine salts to reverse schizophrenia-like symptoms produced by MK-801 in zebrafish was evaluated. The atypical antipsychotic olanzapine was used as a comparison.
(§2) Experiments were performed using male and female (50:50 ratio) short-fin wild-type zebrafish (4-month-old, 300-500 mg). Adult animals were obtained from a local commercial supplier (Delphis, R S, Brazil). The animals were maintained at Instituto de Ciências Básicas da Saúde in a light/dark cycle of 14/10 h with lights on at 7:00 a.m for at least two weeks before tests. Fish were kept in 40-L (30×46×33 cm) unenriched glass tanks with non-chlorinated water at a maximum density of five animals per liter. Tank water satisfied the controlled conditions required for zebrafish (26±2° C.; pH 7.0±0.3; dissolved oxygen at 7.0±0.4 mg/L; total ammonia at <0.01 mg/L; total hardness at 5.8 mg/L; alkalinity at 22 mg/L CaCO3; conductivity of 1,500-1,600 μS/cm) and was constantly filtered by mechanical, biological, and chemical filtration systems. Food was provided twice a day as commercial flake food (Poytara®, SP, Brazil) plus brine shrimp (Artemia salina). The sex of the animals was confirmed after euthanasia by dissecting and analyzing the gonads. For all experiments, no sex effects were observed, so data were pooled together. Animals were euthanized by hypothermic shock according to the AVMA Guidelines for the Euthanasia of Animals (Leary and Johnson, 2020).
(§3) MK-801 (dizocilpine) and sulpiride were purchased from Sigma-Aldrich (St. Louis, MO, USA); olanzapine was purchased from Selleck Chemicals. Alstonine hydrochloride, alstonine benzoate, and alstonine benzensulfonate were prepared as described herein. MK-801, olanzapine, and alstonine hydrochloride were dissolved in distilled water, with sonication in an ultrasonic bath for the latter. Sulpiride, alstonine benzoate, and alstonine benzensulfonate were dissolved in 100% DMSO; stock solutions were diluted to achieve a final DMSO concentration of 1% for the highest concentration. MK-801 solutions were freshly prepared, while alstonine stock solutions were kept refrigerated for up to five days. Exposure solutions were renovated halfway through the experiment, with a maximum of four fish exposed to the same solution.
(§4) Different sets of animals were used for each experiment, totaling 600 zebrafish in the study (plus 200 zebrafish serving as stimulus animals). Animals were individually exposed to water or alstonine solutions at 2.5, 5 or 10 mg/L in 500-mL beakers containing 200-mL solution for 20 min (n=15). These concentrations were extrapolated from mice studies. Fish were then transferred to another beaker containing either water or MK-801 at 5 μM and remained there for another 20 minutes.
(§5) The animals were allocated to the experimental groups following block randomization procedures to counterbalance for home tank, sex, and day of testing. The order for outcome assessment was also randomized and care was taken to counterbalance the test apparatuses across the experimental groups. Outcome assessors were blind to the experimental groups, as well as the experimenters responsible for taking the animal and placing it in the test apparatus.
The protocol for the social preference test in zebrafish followed the method described by Benvenutti et al. (2021). After exposure, animals were placed for 7 min in a tank (30×10×15 cm) flanked by two identical tanks (15×10×13 cm) either empty (neutral stimulus) or containing 10 unknown zebrafish (social stimulus). All three tanks were filled with water in standard conditions at a level of 10 cm. The position of the social stimulus (right or left) was counterbalanced throughout the tests. The water in the test tanks was changed between every animal. To assess social behavior, the test apparatus was virtually divided into three vertical zones (interaction, middle, and neutral). Animals were habituated to the apparatus for 2 min and then analyzed for the last 5 min. […]

Test [2] relates to zebrafish. Kind of test: Open tank test in zebrafish, MK-801 model. The following applies: for overall effect on the analyzed parameters of the open tank test: drug pretreatment. Type of test: in vivo, Danio rerio. As for the experimental part: as §1, §2, §3, §4, §5
The protocol for the open tank test followed the method described by Benvenutti et al. (2021). Immediately after the social preference test, animals were placed in the center of the open tank arena and recorded for 10 min. The apparatus consisted of a white circular arena (24 cm in diameter and 8 cm in height, 2 cm water level). The apparatus format and the acquisition of videos from the top view allows the evaluation of locomotor parameters related to stereotypic behavior (circular movements and absolute turn angle). The water was changed between every animal. The following outcomes were automatically scored using ANY-Maze software (Stoelting Co., Wood Dale, IL, USA): total distance traveled, absolute turn angle, number of clockwise rotations, and immobility time. […]

In the next test the test system is mice. As to conditions: 0.5-1.0 mg/kg ip; cited from earlier work.
The target in the next test is T1, D1 (Homo sapiens, UniProt P21728).
T1 construct: host or cells: cortex membranes (tissue)
The following applies: cortex membranes; preliminary binding studies; cited from earlier work.

For the next test, the system named is D2, and 5-HT2A receptors. As to conditions: cortex membranes; preliminary binding studies; cited from earlier work.
In another test the test system is dopamine (DA) uptake. As to conditions: mouse striatal synaptosomes; cited from earlier work.
[3] abbreviates: MK-801 5 μM vs control, experiment with olanzapine.
[4] abbreviates: MK-801 5 μM vs controls, experiment with sulpiride.

T1 sequence (P21728 whole entry): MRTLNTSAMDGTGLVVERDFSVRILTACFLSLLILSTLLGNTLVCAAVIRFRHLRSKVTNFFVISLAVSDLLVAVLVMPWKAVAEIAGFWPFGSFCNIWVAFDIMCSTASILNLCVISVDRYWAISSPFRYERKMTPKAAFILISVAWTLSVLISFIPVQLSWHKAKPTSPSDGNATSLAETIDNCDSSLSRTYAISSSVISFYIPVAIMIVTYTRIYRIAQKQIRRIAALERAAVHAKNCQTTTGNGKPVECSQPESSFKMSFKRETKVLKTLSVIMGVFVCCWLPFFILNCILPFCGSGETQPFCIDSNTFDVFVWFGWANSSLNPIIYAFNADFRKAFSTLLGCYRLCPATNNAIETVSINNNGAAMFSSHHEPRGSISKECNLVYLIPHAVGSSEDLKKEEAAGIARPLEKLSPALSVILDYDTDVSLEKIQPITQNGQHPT

In the case of `COC(=O)C1=CO[C@@H](C)[C@@H]2Cn3ccc4c5ccccc5nc-4c3C[C@H]12` [Alstonine hydrochloride], in the test with zebrafish [1], the “overall effect on all parameters of the social preference test” value (“overall effect on all parameters” below) is on record as “potentiated the effects of MK-801 in the social preference test”. Moreover, the “time in the zone of interaction” value in the test on zebrafish [1] (fish exposed 20 min to drug, then 20 min to water or MK-801 5 μM, main effect of drug pretreatment, two-way ANOVA) is “nonspecifically reduced the time in the zone of interaction at the intermediate and highest concentrations”. In the test on zebrafish [1] (interaction between drug pretreatment and MK-801 5 μM, Bonferroni post hoc), the number of crossings result is listed as “potentiated the effect of MK-801 at the intermediate concentration”.

`C[C@]12N[C@H](Cc3ccccc31)c1ccccc12` [MK-801, dizocilpine]: in the test on zebrafish [1] (setting [3]), the number of crossings entry is listed as “increased”, the “time in the social interaction zone” value is reported as “spent less time in the social interaction zone” and the total distance traveled entry is listed as “increased the total distance traveled”. In addition, in the test on zebrafish [1] (setting [4]), the immobility time entry is “increased” and the number of crossings result is on record as “increased the number of crossings”. Moreover, in the test with zebrafish [2] (main effect of MK-801 5 μM), the absolute turn angle entry was “decreased”, the clockwise rotations result was “decreased”, the distance traveled entry is “decreased the distance traveled” and the immobility time entry was “increased the immobility time”.

On to `CCN1CCCC1CNC(=O)c1cc(S(N)(=O)=O)ccc1OC` (stereo not shown) [Sulpiride, sulpiride], for which the “overall effect on all parameters” value with zebrafish [1] is on record as “devoid of effects on all parameters”. Also, the “overall effect on the analyzed parameters of the open tank test” value in the test on zebrafish [2] (then water or MK-801 5 μM) is “no significant effects on any of the analyzed parameters”.

Turning to `COC(=O)C1=COC(C)C2C[n+]3ccc4c([nH]c5ccccc54)c3CC12.O=S(=O)([O-])c1ccccc1` (stereo not shown) [alstonine benzensulfonate, Alstonine benzenesulfonate], in the test on zebrafish [1], the “overall effect on all parameters” value is given as “devoid of statistically significant effects”. The immobility time result in the test on zebrafish [2] (drug pretreatment 20 min, then water or MK-801 5 μM, interaction with MK-801, post hoc) was “the intermediate and highest concentrations prevented the increase in immobility time induced by MK-801; also recorded: subgroup of animals that respond to alstonine benzensulfonate regarding immobility time to the level of controls”. The distance traveled entry in the test on zebrafish [2] (drug pretreatment 20 min, then water or MK-801 5 μM, main effect of drug) is “trend for a main effect on total distance”. Also, the clockwise rotations result in the test on zebrafish [2] (drug pretreatment 20 min, then water or MK-801 5 μM, main effect or interaction with MK-801) was “significant interaction; also recorded: preventing (at the highest concentrations) the effects of MK-801 on clockwise rotations”. For the same compound, in the test on zebrafish [2] (then water or MK-801 5 μM), the “overall effect on the analyzed parameters of the open tank test” value is listed as “possess antipsychotic-like properties similar to olanzapine”.

`COC(=O)C1=COC(C)C2C[n+]3ccc4c([nH]c5ccccc54)c3CC12.O=C([O-])c1ccccc1` (stereo not shown) [alstonine benzoate, Alstonine benzoate]: the “overall effect on all parameters” value in the test with zebrafish [1] is on record as “devoid of statistically significant effects”. Moreover, the immobility time result with zebrafish [1] (interaction between drug pretreatment and MK-801 5 μM) is reported as “trend for alstonine benzoate to prevent the effects of MK-801 on immobility time in the highest concentration tested”.

Take `COC(=O)C1=CO[C@@H](C)[C@@H]2Cn3ccc4c5ccccc5nc-4c3C[C@H]12` [alstonine]: the “antipsychotic properties in mice models” value in the test with mice was “shows antipsychotic properties”. Moreover, the “effect on [3H]SCH23390 binding” value at D1 is on record as “does not affect”. Further, in the test on D2, and 5-HT2A receptors, the “effect on [3H]Spiperone binding” value is listed as “does not affect”. For the same compound, the DA uptake result in the test on dopamine (DA) uptake is “increasing DA uptake”.
